Laboratory results from US9034921B2, “Diphenylmethane derivatives as SGLT2 inhibitors” (GREEN CROSS CORPORATION, priority 2011, dated 2015).

target: human SGLT2 (Homo sapiens (Human), UniProt P31639); assay: Inhibitory effects on human SGLT2 activities (14C-AMG uptake, sodium-dependent glucose transport assay); format: cell-based; conditions: CHO cells stably expressing hSGLT2, 37° C., 2 h, single determinations
Excerpt: Test 1: Cloning and Cell Line Construction for Human SGLT2
Human SGLT2 (hSGLT2) gene was amplified by PCR from cDNA-Human Adult Normal Tissue Kidney (Invitrogen). The hSGLT2 sequence was cloned into pcDNA3.1(+) for mammalian expression and stably transfected into chinese hamster ovary (CHO) cells. SGLT2-expressing clones were selected based on resistance to G418 antibiotic (Geneticin) and activity in the ^14C-α-methyl-D-glucopyranoside (^14C-AMG) uptake assay.
Test 2: Inhibitory Effects on Human SGLT2 Activities
For sodium-dependent glucose transport assay, cells expressing hSGLT2 were seeded into a 96-well culture plate at a density of 5×10^4 cells/well in RPMI medium 1640 containing 10% fetal bovine serum. The cells were used 1 day after plating. They were incubated in pretreatment buffer (10 mM HEPES, 5 mM Tris, 140 mM choline chloride, 2 mM KCl, 1 mM CaCl2, and 1 mM MgCl2, pH 7.4) at 37° C. for 10 min. They were then incubated in uptake buffer (10 mM HEPES, 5 mM Tris, 140 mM NaCl, 2 mM KCl, 1 mM CaCl2, 1 mM MgCl2, and 1 mM ^14C-nonlabeled AMG pH 7.4) containing ^14C-labeled AMG (8 μM) and the inventive compound or dimethyl sulfoxide (DMSO) vehicle at 37° C. for 2 h. Cells were washed twice with washing buffer (pretreatment buffer containing 10 mM AMG at room temperature) and then the radioactivity was measured using a liquid scintillation counter. IC50 was determined by nonlinear regression analysis using GraphPad PRISM [Katsuno, K. et al. J. Pharmacol. Exp. Ther. 2007, 320, 323-330; Han, S. et al. Diabetes, 2008, 57, 1723-1729].

Chain of human SGLT2 (P31639 whole entry): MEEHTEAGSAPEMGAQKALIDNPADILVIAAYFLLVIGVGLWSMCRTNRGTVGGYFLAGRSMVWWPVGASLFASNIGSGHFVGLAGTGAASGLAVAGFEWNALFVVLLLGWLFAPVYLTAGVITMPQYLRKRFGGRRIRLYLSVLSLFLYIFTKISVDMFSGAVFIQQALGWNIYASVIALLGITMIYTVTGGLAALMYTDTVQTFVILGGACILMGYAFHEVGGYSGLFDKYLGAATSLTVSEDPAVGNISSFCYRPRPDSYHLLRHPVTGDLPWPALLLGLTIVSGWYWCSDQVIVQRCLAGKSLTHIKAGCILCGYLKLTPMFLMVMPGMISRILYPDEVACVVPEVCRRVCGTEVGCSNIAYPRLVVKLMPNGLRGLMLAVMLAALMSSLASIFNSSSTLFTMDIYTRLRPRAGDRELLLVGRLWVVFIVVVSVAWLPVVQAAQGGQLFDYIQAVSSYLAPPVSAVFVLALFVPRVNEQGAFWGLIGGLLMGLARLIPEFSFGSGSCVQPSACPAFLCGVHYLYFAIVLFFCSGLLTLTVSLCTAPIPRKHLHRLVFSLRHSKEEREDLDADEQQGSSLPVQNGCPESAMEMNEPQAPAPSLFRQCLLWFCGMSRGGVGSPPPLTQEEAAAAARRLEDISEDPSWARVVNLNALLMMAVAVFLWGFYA

SMILES	IC50 [nM]
CCOc1ccc(Cc2cc([C@@H]3O[C@H](CO)[C@@H](O)[C@H](O)[C@H]3O)c3c(c2Cl)C(C)CO3)cc1 (stereo partly drawn) [Example E222, (2S,3R,4R,5S,6R)-2-(4-Chloro-5-(4-ethoxybenzyl)-3-methyl-2,3-dihydrobenzofuran-7-yl)-6-(hydroxymethyl)-tetrahydro-2H-pyran-3,4,5-triol]	1.99
CCc1ccc(Cc2cc([C@@H]3O[C@H](CO)[C@@H](O)[C@H](O)[C@H]3O)c3c(c2Cl)OCCO3)cc1 [Example E105, (2S,3R,4R,5S,6R)-2-(8-Chloro-7-(4-ethylbenzyl)-2,3-dihydrobenzo[b][1,4]dioxin-5-yl)-6-(hydroxymethyl)tetrahydro-2H-pyran-3,4,5-triol]	0.923
OC[C@H]1O[C@@H](c2cc(Cc3ccc(OC4CCC4)cc3)c(Cl)c3c2CCO3)[C@H](O)[C@@H](O)[C@@H]1O [Example E234, (2S,3R,4R,5S,6R)-2-(7-Chloro-6-(4-cyclobutoxybenzyl)-2,3-dihydrobenzofuran-4-yl)-6-(hydroxymethyl)-tetrahydro-2H-pyran-3,4,5-triol]	2.82
Cc1c(Br)cc([C@@H]2O[C@H](CO)[C@@H](O)[C@H](O)[C@H]2O)cc1Cc1ccc2c(c1)OCCO2 [Example E085, (2S,3R,4R,5S,6R)-2-(3-Bromo-5-((2,3-dihydrobenzo[b][1,4]dioxin-6-yl)methyl)-4-methylphenyl)-6-(hydroxymethyl)-tetrahydro-2H-pyran-3,4,5-triol]	1.82
OC[C@H]1O[C@@H](c2cc(Cc3ccc4c(c3)OCCO4)c(Cl)c3c2OCCO3)[C@H](O)[C@@H](O)[C@@H]1O [Example E103, (2S,3R,4R,5S,6R)-2-(8-Chloro-7-((2,3-dihydrobenzo[b][1,4]dioxin-6-yl)methyl)-2,3-dihydrobenzo[b][1,4]dioxin-5-yl)-6-(hydroxymethyl)tetrahydro-2H-pyran-3,4,5-triol]	1.82
CCc1ccc(Cc2cc([C@@H]3O[C@H](CO)[C@@H](O)[C@H](O)[C@H]3O)c3c(c2Cl)CCC3)cc1 [Example E238, (2S,3R,4R,5S,6R)-2-(7-Chloro-6-(4-ethylbenzyl)-2,3-dihydro-1H-inden-4-yl)-6-(hydroxymethyl)tetrahydro-2H-pyran-3,4,5-triol]	0.627
C=Cc1ccc(Cc2cc([C@@H]3O[C@H](CO)[C@@H](O)[C@H](O)[C@H]3O)c3c(c2Cl)OCC3)cc1 [Example E171, (2S,3R,4R,5S,6R)-2-(7-Chloro-6-(4-vinylbenzyl)-2,3-dihydrobenzofuran-4-yl)-6-(hydroxymethyl)tetrahydro-2H-pyran-3,4,5-triol]	0.366
CCOc1ccc(Cc2cc([C@@H]3O[C@H](CO)[C@@H](O)[C@H](O)[C@H]3O)c3c(c2Cl)CCCO3)cc1 [Example E012, (2S,3R,4R,5S,6R)-2-(5-Chloro-6-(4-ethoxybenzyl)chroman-8-yl)-6-(hydroxymethyl)tetrahydro-2H-pyran-3,4,5-triol]	1.55
CCOc1ccc(Cc2cc([C@@H]3O[C@H](CO)[C@@H](O)[C@H](O)[C@H]3O)c3c(c2Br)CCC3)cc1 [Example E003, (2S,3R,4R,5S,6R)-2-(7-Bromo-6-(4-ethoxybenzyl)-2,3-dihydro-1H-inden-4-yl)-6-(hydroxymethyl)tetrahydro-2H-pyran-3,4,5-triol]	0.738
COc1ccc(Cc2cc([C@@H]3O[C@H](CO)[C@@H](O)[C@H](O)[C@H]3O)c3c(c2Cl)SCC3)cc1 [Example E241, (2S,3R,4R,5S,6R)-2-(7-Chloro-6-(4-methoxybenzyl)-2,3-dihydrobenzo[b]thiophen-4-yl)-6-(hydroxymethyl)tetrahydro-2H-pyran-3,4,5-triol]	0.902
COc1cc([C@@H]2O[C@H](CO)[C@@H](O)[C@H](O)[C@H]2O)cc(Cc2ccc3c(c2)OCCO3)c1Cl [Example E043, (2S,3R,4R,5S,6R)-2-(4-Chloro-3-((2,3-dihydrobenzo[b][1,4]dioxin-6-yl)methyl)-5-methoxyphenyl)-6-(hydroxymethyl)tetrahydro-2H-pyran-3,4,5-triol]	2.68
OC[C@H]1S[C@@H](c2ccc(Cl)c(Cc3ccc4c(c3)OCCO4)c2)[C@H](O)[C@@H](O)[C@@H]1O [Example E047, (2S,3R,4R,5S,6R)-2-(4-Chloro-3-((2,3-dihydrobenzo[b][1,4]dioxin-6-yl)methyl)phenyl)-6-(hydroxymethyl)tetrahydro-2H-thiopyran-3,4,5-triol]	4.17
CN(C)c1ccc(Cc2cc([C@@H]3O[C@H](CO)[C@@H](O)[C@H](O)[C@H]3O)c3c(c2Cl)OCC3)cc1 [Example E190, (2S,3R,4R,5S,6R)-2-(7-Chloro-6-(4-(dimethylamino)benzyl)-2,3-dihydrobenzofuran-4-yl)-6-(hydroxymethyl)tetrahydro-2H-pyran-3,4,5-triol]	1.11
OC[C@H]1O[C@@H](c2ccc(Cl)c(Cc3ccc4c(cnn4Cc4ccccc4)c3)c2)[C@H](O)[C@@H](O)[C@@H]1O [Example E033, (2S,3R,4R,5S,6R)-2-(3-((1-Benzyl-1H-indazol-5-yl)methyl)-4-chlorophenyl)-6-(hydroxymethyl)tetrahydro-2H-pyran-3,4,5-triol]	2.39
COc1ccc(Cc2cc([C@@H]3O[C@H](CO)[C@@H](O)[C@H](O)[C@H]3O)c3c(c2Cl)CCC3)cc1 [Example E005, (2S,3R,4R,5S,6R)-2-(7-Chloro-6-(4-methoxybenzyl)-2,3-dihydro-1H-inden-4-yl)-6-(hydroxymethyl)tetrahydro-2H-pyran-3,4,5-triol]	0.681
COc1ccc(Cc2cc([C@@H]3O[C@H](CO)[C@@H](O)[C@H](O)[C@H]3O)c3c(c2Cl)CC(C)(C)O3)cc1 [Example E219, (2S,3R,4R,5S,6R)-2-(4-Chloro-5-(4-methoxybenzyl)-2,2-dimethyl-2,3-dihydrobenzofuran-7-yl)-6-(hydroxymethyl)tetrahydro-2H-pyran-3,4,5-triol]	1.61

The next lines start with the values.

IC50 [nM]	SMILES
1.28	CCOc1ccc(Cc2cc([C@@H]3O[C@H](CO)[C@@H](O)[C@H](O)[C@H]3O)c3c(c2C)OCC3)cc1 [Example E129, (2S,3R,4R,5S,6R)-2-(6-(4-Ethoxybenzyl)-7-methyl-2,3-dihydrobenzofuran-4-yl)-6-(hydroxymethyl)tetrahydro-2H-pyran-3,4,5-triol]
0.835	CCc1ccc(Cc2cc([C@@H]3O[C@H](CO)[C@@H](O)[C@H](O)[C@H]3O)c3c(c2Cl)OC(C)C3)cc1 (stereo partly drawn) [Example E136, (2S,3R,4R,5S,6R)-2-(7-Chloro-6-(4-ethylbenzyl)-2-methyl-2,3-dihydrobenzofuran-4-yl)-6-(hydroxymethyl)tetrahydro-2H-pyran-3,4,5-triol]
1.88	OC[C@H]1O[C@@H](c2cc(Cc3ccc(SC4CC4)cc3)c(Cl)c3c2CCO3)[C@H](O)[C@@H](O)[C@@H]1O [Example E206, (2S,3R,4R,5S,6R)-2-(7-Chloro-6-(4-(cyclopropylthio)benzyl)-2,3-dihydrobenzofuran-4-yl)-6-(hydroxymethyl)tetrahydro-2H-pyran-3,4,5-triol]
1.08	CCc1ccc(Cc2cc([C@@H]3O[C@H](CO)[C@@H](O)[C@H](O)[C@H]3O)c3c(c2Cl)OCCCO3)cc1 [Example E165, (2S,3R,4R,5S,6R)-2-(9-Chloro-8-(4-ethylbenzyl)-3,4-dihydro-2H-benzo[b][1,4]dioxepin-6-yl)-6-(hydroxymethyl)tetrahydro-2H-pyran-3,4,5-triol]
0.978	COc1ccc(Cc2cc([C@@H]3O[C@H](CO)[C@@H](O)[C@H](O)[C@H]3O)c3c(c2Cl)CCCO3)cc1 [Example E016, (2S,3R,4R,5S,6R)-2-(5-Chloro-6-(4-methoxybenzyl)chroman-8-yl)-6-(hydroxymethyl)tetrahydro-2H-pyran-3,4,5-triol]
1.15	COc1ccc(Cc2cc([C@@H]3O[C@H](CO)[C@@H](O)[C@H](O)[C@H]3O)c3c(c2Br)CCC3)cc1 [Example E001, (2S,3R,4R,5S,6R)-2-(7-Bromo-6-(4-methoxybenzyl)-2,3-dihydro-1H-inden-4-yl)-6-(hydroxymethyl)tetrahydro-2H-pyran-3,4,5-triol]
0.629	CS[C@H]1O[C@@H](c2ccc(Cl)c(Cc3ccc4c(c3)OCCO4)c2)[C@H](O)[C@@H](O)[C@@H]1O [Example E091, (2S,3R,4R,5S,6R)-2-(4-Chloro-3-((2,3-dihydrobenzo[b][1,4]dioxin-6-yl)methyl)phenyl)-6-(methylthio)tetrahydro-2H-pyran-3,4,5-triol]
18.1	OC[C@H]1O[C@@H](c2cc(Cc3ccc(C4CC4)cc3)c(Cl)c3ccoc23)[C@H](O)[C@@H](O)[C@@H]1O [Example E173, (2S,3R,4R,5S,6R)-2-(4-Chloro-5-(4-cyclopropylbenzyl)benzofuran-7-yl)-6-(hydroxymethyl)tetrahydro-2H-pyran-3,4,5-triol]
0.454	CS[C@H]1O[C@@H](c2cc(Cc3ccc4c(c3)OCCO4)c(Cl)cc2O)[C@H](O)[C@@H](O)[C@@H]1O [Example E098, (2S,3R,4R,5S,6R)-2-(4-Chloro-5-((2,3-dihydrobenzo[b][1,4]dioxin-6-yl)methyl)-2-hydroxyphenyl)-6-(methylthio)-tetrahydro-2H-pyran-3,4,5-triol]
